Measurements published in article PMC8949129, “Unique Phenanthrenes from Juncus ensifolius and Their Antiproliferative and Synergistic Effects with the Conventional Anticancer Agent Doxorubicin against Human Cancer Cell Lines” (Pharmaceutics, 2022).
Like-named read-outs stand apart in the source and are kept apart here.

Experiments:
[1] = test system: COLO 205 doxorubicin-sensitive colonic adenocarcinoma cells; experiment: Antiproliferative MTT assay, COLO 205; type: cell-based, human; conditions: for IC50: MTT, 72 h, four parallel measurements, read-out: IC50 (µM) ± SD COLO 205; for SI MRC-5/COLO 205: selectivity index: IC50 in non-tumour cells / IC50 in cancer cells
Protocol: (§1) The human colon adenocarcinoma cells (COLO 205 sensitive and the resistant COLO 320/MDR-LRP expressing P-gp), namely, ATCC-CCL-220.1 (COLO 320) and CCL-222 (COLO 205) were cultured in RPMI 1640 medium supplemented with 10% heat-inactivated fetal bovine serum, 2 mM L-glutamine, 1 mM Na pyruvate, and 100 mM HEPES. HeLa (ATCC® CCL-2™) human cervix carcinoma cells, and MRC-5 (ATCC® CCL-171) human embryonal lung fibroblast cells were cultured in Eagle’s minimal essential medium (EMEM, containing 4.5 g/L glucose) supplemented with a non-essential amino acid mixture, a selection of vitamins, and 10% heat-inactivated fetal bovine serum. The cell lines were detached with 0.25% trypsin and 0.02% EDTA for 5 min at 37 °C.
(§2) In the study, human colonic adenocarcinoma cell lines (doxorubicin-sensitive COLO 205 and multidrug resistant COLO 320 colonic adenocarcinoma cells), HeLa human cervix carcinoma cells and the MRC-5 non-cancerous human embryonic lung fibroblast cell line were used to determine the effect of the compounds on cell growth. The effects of increasing concentrations of compounds on cell growth were tested in 96-well flat-bottomed microtiter plates. […] The compounds were diluted in a volume of 100 μL of the medium. The adherent cells were cultured in 96-well flat-bottomed microtiter plates using EMEM supplemented with 10% heat-inactivated fetal bovine serum. The density of the cells was adjusted to 6 × 10^3 cells in 100 µL per well, the cells were seeded prior to the assay for 24 h at 37 °C, with 5% CO2, and then the medium was removed from the plates, and fresh medium (100 µL per well) was added to the cells. The effects of increasing concentrations of compounds on cell proliferation were tested in 96-well flat-bottomed microtiter plates. The compounds were diluted in the appropriate medium; the dilutions of compounds were performed in separate plates and then added to the cells. The starting concentration of the compounds was 100 µM, and two-fold serial dilution was performed (concentration range: 100–0.19 µM). The culture plates were incubated at 37 °C for 72 h; at the end of the incubation period, 20 µL of MTT (thiazolyl blue tetrazolium bromide, Sigma) solution (from a stock solution of 5 mg/mL) was added to each well. After incubation at 37 °C for 4 h, 100 µL of sodium dodecyl sulfate (SDS) (Sigma) solution (10% in 0.01 M HCI) was added to each well, and the plates were further incubated at 37 °C overnight. Cell growth was determined by measuring the optical density (OD) at 540/630 nm, with a Multiscan EX ELISA reader (Thermo Labsystems, Cheshire, WA, USA). Inhibition of cell growth (expressed as IC50: inhibitory concentration that reduces the growth of the cells exposed to the tested compounds by 50%) was determined from the sigmoid curve where 100 − ((ODsample − ODmedium control)/(ODcell control − ODmedium control)) × 100 was plotted against the logarithm of the compound concentrations. Curves were fitted by Prism5 software (GraphPad Software Inc., San Diego, CA, USA) from four parallel experiments for each cell line. Results are expressed in terms of IC50, defined as the inhibitory dose that reduces the proliferation of the cells exposed to the tested compounds by 50% [20].

[2] = test system: HeLa human cervix carcinoma cells; experiment: Antiproliferative MTT assay, HeLa; type: cell-based; conditions: for IC50: MTT, 72 h, four parallel measurements, read-out: IC50 (µM) ± SD HeLa; for SI MRC-5/HeLa: selectivity index: IC50 in non-tumour cells / IC50 in cancer cells
Protocol: as §1, §2

[3] = test system: MRC-5 human embryonal lung fibroblast cells; experiment: Antiproliferative MTT assay, MRC-5 non-tumor cells; type: cell-based; conditions: four parallel measurements, read-out: IC50 (µM) ± SD MRC-5
Protocol: as §1, §2

HeLa cells = experiment: Drug combination assay with doxorubicin (MTT, CompuSyn); type: cell-based, human; design: key to CI (combination index): CI <1 synergy, ~1 additivity, >1 antagonism; conditions: for Interaction: interaction type with doxorubicin; for CI (combination index): with doxorubicin, 72 h, average over drug ratios at IC50
Protocol: The HeLa cell line was used to perform this assay. Doxorubicin (2 mg/mL, Teva Pharmaceuticals, Budapest, Hungary) was serially diluted in the horizontal direction, starting with 8.6 µM. The resistance modifier was subsequently diluted in the vertical direction, and the starting concentration was determined based on the IC50. The dilutions of doxorubicin were made in a horizontal direction in 100 µL, and the dilutions of the resistance modifiers occurred vertically in the microtiter plate in a 50 µL volume. The compounds and doxorubicin were diluted separately. […] Then, diluted compounds with a volume of 50 μL were added to each well to reach a final volume of 200 μL. The plates were incubated for 72 h at 37 °C in a CO2 incubator, and at the end of the incubation period, the cell growth was determined by the MTT staining method, as described earlier. Drug interactions were evaluated using CompuSyn software. Each dose-response curve (for individual agents as well as combinations) was fit to a linear model using the median effect equation in order to obtain the median effect value (corresponding to the IC50) and slope (m). The goodness-of-fit was assessed using the linear correlation coefficient, r, and only data from analysis with r > 0.90 are presented. The extent of the interaction between drugs was expressed using the combination index in which a CI value close to 1 indicates additivity, while CI < 1 is defined as synergy and CI > 1 as antagonism.

[4] = test system: HeLa, COLO 205, and COLO 320 cancer cells; experiment: Antiproliferative MTT assay, summary over the tested cell lines; type: cell-based; conditions: Homo sapiens, 72 h, COLO 205, COLO 320, read-out: IC50 values, range over the cancer cell lines
Protocol: as §1
In the study, human colonic adenocarcinoma cell lines (doxorubicin-sensitive COLO 205 and multidrug resistant COLO 320 colonic adenocarcinoma cells), HeLa human cervix carcinoma cells and the MRC-5 non-cancerous human embryonic lung fibroblast cell line were used to determine the effect of the compounds on cell growth. The effects of increasing concentrations of compounds on cell growth were tested in 96-well flat-bottomed microtiter plates. […] The compounds were diluted in a volume of 100 μL of the medium. […] Cell growth was determined by measuring the optical density (OD) at 540/630 nm, with a Multiscan EX ELISA reader (Thermo Labsystems, Cheshire, WA, USA). […]

[5] = test system: COLO 320/MDR-LRP multidrug resistant colonic adenocarcinoma cells expressing P-gp; experiment: Antiproliferative MTT assay, COLO 320; conditions: for IC50: read-out: IC50 (µM) ± SD COLO 320; for SI MRC-5/COLO 320: selectivity index: IC50 in non-tumour cells / IC50 in cancer cells
Protocol: as §1, §2

[6] = MTT, 72 h, four parallel measurements

## Cc1cc(O)c2c(c1C(O)COc1cc(-c3cc(=O)c4c(O)cc(O)cc4o3)ccc1O)CCc1c-2ccc(O)c1C (centres unmarked) [Compound 1, Ensifolin A]
[1]; COLO 205 cells
  activity relative to positive control cisplatin: more than ten-fold
[1]; Homo sapiens, COLO 205, 72 h
  IC50: 3.9 µM
[1]
  IC50: 3.86 ± 0.08 µM
[2]; Homo sapiens, HeLa
  IC50: 8.25 ± 0.51 µM
[2]
  SI MRC-5/HeLa: 2.34
[3]; Homo sapiens, MRC5, 72 h
  IC50: 19.3 ± 0.54 µM
HeLa cells
  Interaction: strong synergism (0.1 < CI < 0.3: strong synergism)
  CI (combination index): 0.272
[4]
  IC50: 3.9 to 12.7 µM
[5]; Homo sapiens, COLO 320, 72 h
  IC50: 12.71 ± 0.05 µM
[5]
  SI MRC-5/COLO 320: 1.52

## C=Cc1cc(C)cc2c1-c1ccc(O)c(C)c1C(O)C2 (centres unmarked) [Compound 3, 2,10-dihydroxy-1,7-dimethyl-5-vinyl-9,10-dihydrophenanthrene]
[1]; Homo sapiens, COLO 205, 72 h
  IC50: > 100 µM
[2]; Homo sapiens, HeLa
  IC50: > 100 µM
[3]; Homo sapiens, MRC5, 72 h
  IC50: > 100 µM
HeLa cells
  Interaction: synergism (0.3 < CI < 0.7: synergism)
  CI (combination index): 0.580
[5]; Homo sapiens, COLO 320, 72 h
  IC50: > 100 µM

## C=Cc1cc(C)cc2c1-c1ccc(O)c(COC)c1CC2 [Compound 4, Ensifolin D]
[1]; Homo sapiens, COLO 205, 72 h
  IC50: 65.6 ± 0.78 µM
[1]
  SI MRC-5/COLO 205: >1.52
[2]; Homo sapiens, HeLa
  IC50: 19.4 ± 0.33 µM
[2]
  SI MRC-5/HeLa: >5.15
[3]; Homo sapiens, MRC5, 72 h
  IC50: > 100 µM
HeLa cells
  Interaction: synergism (0.3 < CI < 0.7: synergism)
  CI (combination index): 0.643
[5]; Homo sapiens, COLO 320, 72 h
  IC50: 61.6 ± 9.95 µM
[5]
  SI MRC-5/COLO 320: >1.62

## C=Cc1c(C)cc(O)c2c1CCc1c-2ccc(O)c1C [Compound 5, 2,5-dihydroxy-1,7-dimethyl-8-vinyl-9,10-dihydrophenanthrene]
[1]; Homo sapiens, COLO 205, 72 h
  IC50: 31.2 ± 0.66 µM
[1]
  SI MRC-5/COLO 205: 1.42
[2]; Homo sapiens, HeLa
  IC50: 27.5 ± 1.19 µM
[2]
  SI MRC-5/HeLa: 1.61
[3]; Homo sapiens, MRC5, 72 h
  IC50: 44.3 ± 0.61 µM
HeLa cells
  Interaction: very strong synergism (CI < 0.1: very strong synergism)
[4]
  IC50: 25.2 to 31.2 µM
[5]; Homo sapiens, COLO 320, 72 h
  IC50: 25.2 ± 0.92 µM
[5]
  SI MRC-5/COLO 320: 1.76

## C=Cc1c(CO)cc(O)c2c1CCc1c-2ccc(O)c1C [Compound 6, Ensifolin F]
[1]; Homo sapiens, COLO 205, 72 h
  IC50: > 100 µM
[2]; Homo sapiens, HeLa
  IC50: 74.3 ± 2.98 µM
[2]
  SI MRC-5/HeLa: >1.35
[3]; Homo sapiens, MRC5, 72 h
  IC50: > 100 µM
HeLa cells
  Interaction: strong synergism (0.1 < CI < 0.3: strong synergism)
  CI (combination index): 0.159
[5]; Homo sapiens, COLO 320, 72 h
  IC50: 93.71 ± 0.14 µM
[5]
  SI MRC-5/COLO 320: >1.07

## CC(=O)c1c(C)cc(O)c2c1CCc1c-2ccc(O)c1C [Compound 7, Ensifolin G]
[1]; Homo sapiens, COLO 205, 72 h
  IC50: > 100 µM
[2]; Homo sapiens, HeLa
  IC50: 75.6 ± 0.94 µM
[2]
  SI MRC-5/HeLa: >1.32
[3]; Homo sapiens, MRC5, 72 h
  IC50: > 100 µM
HeLa cells
  Interaction: synergism (0.3 < CI < 0.7: synergism)
  CI (combination index): 0.568
[5]; Homo sapiens, COLO 320, 72 h
  IC50: > 100 µM

## C=Cc1c(C)cc(O)c2c1CCc1c-2cc(-c2cc3c(c(C)c2O)CCc2c(C=C)c(C)cc(O)c2-3)c(O)c1C [Compound 10, Ensifolin J]
[1]; Homo sapiens, COLO 205, 72 h
  IC50: 44.5 ± 1.22 µM
[1]
  SI MRC-5/COLO 205: 1.30
[2]; Homo sapiens, HeLa
  IC50: 33.5 ± 1.89 µM
[2]
  SI MRC-5/HeLa: 1.72
[3]; Homo sapiens, MRC5, 72 h
  IC50: 57.8 ± 1.32 µM
HeLa cells
  Interaction: synergism (0.3 < CI < 0.7: synergism)
  CI (combination index): 0.454
[5]; Homo sapiens, COLO 320, 72 h
  IC50: 42.8 ± 1.28 µM
[5]
  SI MRC-5/COLO 320: 1.35

## C=Cc1c(C)cc(O)c2c1CCc1c-2cc(-c2c(O)c(C)c(C=C)c3ccc4c(C)c(O)ccc4c23)c(O)c1C [Compound 11, Ensifolin K]
[1]; Homo sapiens, COLO 205, 72 h
  IC50: 31.4 ± 0.72 µM
[1]
  SI MRC-5/COLO 205: 1.06
[2]; Homo sapiens, HeLa
  IC50: 29.5 ± 0.31 µM
[2]
  SI MRC-5/HeLa: 1.12
[3]; Homo sapiens, MRC5, 72 h
  IC50: 33.16 ± 0.05 µM
HeLa cells
  Interaction: strong synergism (0.1 < CI < 0.3: strong synergism)
  CI (combination index): 0.112
[5]; Homo sapiens, COLO 320, 72 h
  IC50: 37.8 ± 1.05 µM
[5]
  SI MRC-5/COLO 320: 0.88

## C=Cc1c(C)cc(O)c2c1CCc1c-2cc(-c2c(C)c(C=C)c3c(c2O)-c2ccc(O)c(C)c2CC3)c(O)c1C [Compound 12, Ensifolin L]
[1]; Homo sapiens, COLO 205, 72 h
  IC50: 26.9 ± 1.19 µM
[1]
  SI MRC-5/COLO 205: 1.87
[2]; Homo sapiens, HeLa
  IC50: 30.22 ± 0.21 µM
[2]
  SI MRC-5/HeLa: 1.67
[3]; Homo sapiens, MRC5, 72 h
  IC50: 50.4 ± 1.3 µM
HeLa cells
  Interaction: strong synergism (0.1 < CI < 0.3: strong synergism)
  CI (combination index): 0.120
[5]; Homo sapiens, COLO 320, 72 h
  IC50: 37.4 ± 2.13 µM
[5]
  SI MRC-5/COLO 320: 1.35

## C=Cc1cc(C)cc2c1-c1ccc(O)c(C)c1CC2 [Compound 14, 2-hydroxy-1,7-dimethyl-5-vinyl-9,10-dihydrophenanthrene]
[1]; Homo sapiens, COLO 205, 72 h
  IC50: 32.9 ± 0.59 µM
[1]
  SI MRC-5/COLO 205: 1.85
[2]; Homo sapiens, HeLa
  IC50: 58.1 ± 1.2 µM
[2]
  SI MRC-5/HeLa: 1.05
[3]; Homo sapiens, MRC5, 72 h
  IC50: 60.89 ± 0.25 µM
HeLa cells
  Interaction: synergism (0.3 < CI < 0.7: synergism)
  CI (combination index): 0.579
[5]; Homo sapiens, COLO 320, 72 h
  IC50: 52.4 ± 0.77 µM
[5]
  SI MRC-5/COLO 320: 1.16

## C#Cc1c(C)c(O)cc2c1CCc1c-2ccc(O)c1C [Compound 16, juncatrin B]
[1]
  IC50: 34.4 ± 0.57 µM
  SI MRC-5/COLO 205: 0.76
[2]
  IC50: 6.65 ± 0.1 µM
  SI MRC-5/HeLa: 3.91
[3]; 72 h
  IC50: 26 ± 0.85 µM
HeLa cells
  Interaction: synergism (0.3 < CI < 0.7: synergism)
  CI (combination index): 0.682
[5]; [6]
  IC50: 32.5 ± 0.75 µM
[5]
  SI MRC-5/COLO 320: 0.80

## O=Cc1ccc(O)cc1 [Compound 18, 4-hydroxybenzaldehyde]
[1]; Homo sapiens, COLO 205, 72 h
  IC50: > 100 µM
[2]; Homo sapiens, HeLa
  IC50: > 100 µM
[3]; Homo sapiens, MRC5, 72 h
  IC50: > 100 µM
[5]; Homo sapiens, COLO 320, 72 h
  IC50: > 100 µM

## O=c1cc(-c2ccc(O)c(O)c2)oc2cc(O)cc(O)c12 [Compound 19, luteolin]
[1]; Homo sapiens, COLO 205, 72 h
  IC50: > 100 µM
[2]; Homo sapiens, HeLa
  IC50: > 100 µM
[3]; Homo sapiens, MRC5, 72 h
  IC50: > 100 µM
[5]; Homo sapiens, COLO 320, 72 h
  IC50: > 100 µM

## N.N.[Cl][Pt][Cl] [cisplatin, reference compound]
[1]
  IC50: 41.7 ± 1.62 µM
[2]
  IC50: 3.62 ± 0.16 µM
[3]; 72 h
  IC50: 2.36 ± 0.33 µM

## COc1cccc2c1C(=O)c1c(O)c3c(c(O)c1C2=O)C[C@@](O)(C(=O)CO)C[C@@H]3O[C@H]1C[C@H](N)[C@H](O)[C@H](C)O1 [doxorubicin]
[1]; Homo sapiens, COLO 205, 72 h
  IC50: 1.36 ± 0.36 µM
[2]; Homo sapiens, HeLa
  IC50: 0.04 ± 0.004 µM
[3]; Homo sapiens, MRC5, 72 h
  IC50: 0.53 ± 0.06 µM
[5]; Homo sapiens, COLO 320, 72 h
  IC50: 0.22 ± 0.004 µM

## sylvaticin A [Compound 17]
[1]
  IC50: 56.7 ± 0.75 µM
  SI MRC-5/COLO 205: >1.76
[2]
  IC50: 10.56 ± 0.09 µM
  SI MRC-5/HeLa: >9.47
[3]; 72 h
  IC50: > 100 µM
HeLa cells
  Interaction: strong synergism (0.1 < CI < 0.3: strong synergism)
  CI (combination index): 0.279
[5]; [6]
  IC50: 57.7 ± 0.92 µM
[5]
  SI MRC-5/COLO 320: >1.73
